# From patent US7196105B2, “Treatment of human multiple myeloma by curcumin” (Research Development Foundation, priority 2002, dated 2007)
# Assays:
# [1] = system: multiple myeloma cell lines MM.1S, RPMI-8226 and U266; conditions: 50 μM PS-1145; cited from earlier work
# [2] = system: U266 cells; assay: Cytotoxic effect of vincristine with or without curcumin (MTT); format: cell-based, human; conditions: vincristine 50 μM alone, 24 h
# Experimental: The antiproliferative effects of curcumin against different multiple myeloma cell lines were determined by the MTT dye uptake method as described earlier (Manna et al., 1998). Briefly, cells (5000/well) were incubated in triplicate in a 96-well plate in the presence or absence of indicated test samples in a final volume of 0.1 ml for 24 h at 37° C. Thereafter, 0.025 ml of MTT solution (5 mg/ml in PBS) was added to each well. After a 2 h incubation at 37 ° C., 0.1 ml of extraction buffer (20% SDS, 50% dimethylformamide) was added. Incubation was continued for overnight at 37 ° C., and then the OD at 590 nm was measured using a 96-well multiscanner autoreader (Dynatech MR 5000), with extraction buffer as blank. Percent cell viability=(OD of the experiment samples/OD of the control)×100.
# [3] = system: p65 subunit of NF-κB; assay: Immunocytochemistry for NF-κB p65 localization in multiple myeloma cell lines; format: cell-based, human; conditions: U266 cells, NBD-peptide 100 μM, 12 h
# Experimental: Red stain indicates the localization of p65 and blue stain (Hoechst) indicates nucleus (magnification 200×). […] U266 cells (2×10^6 cells/ml) were treated with indicated concentrations of NEMO-control or NBD-peptide (100 μM) for the indicated times. Nuclear extracts were then checked for the presence of NF-κB DNA-binding activity by EMSA. […] Untreated or NBD-peptide-treated (100 μM; 12 h) U266 cells were cytospun, and p65 immunocytochemistry was performed as described. Red stain indicates the localization of p65 and blue stain indicates nucleus (magnification 200×). […] U266 cells (2×10^6 cells/ml) were treated with indicated concentrations of NEMO-control or NBD-peptide (100 μM) for the indicated time periods, and cell viability was monitored by the trypan blue dye exclusion method. Percent cell killing was determined as: (number of trypan blue stained cells/total cells)×100. […] Stained slides were mounted with mounting medium (Sigma Colo.) and analyzed under an epifluorescence microscope (Labophot-2, Nikon, Tokyo, Japan). […] Cells with nuclear staining of NF-κB p65 or STAT3 were counted separately. One hundred cells were counted for each specimen, and the sample was graded on the basis of a 4-point scale: −, no nuclear positive cells (0%); +, low number of nuclear positive cells (<10%); ++, moderate number of nuclear positive cells (10–50%); +++, high number of nuclear positive cells (>50%).
# [4] = system: U266 cells; assay: Cell viability by trypan blue dye exclusion after NBD peptide treatment; format: cell-based, human; conditions: NBD peptide 100 μM, 24 h
# Experimental: FIG. 8A: U266 cells (2×10^6 cells/ml) were treated with indicated concentrations of NEMO-control or NBD-peptide (100 μM) for the indicated times. Nuclear extracts were then checked for the presence of NF-κB DNA-binding activity by EMSA. FIG. 8B: Untreated or NBD-peptide-treated (100 μM; 12 h) U266 cells were cytospun, and p65 immunocytochemistry was performed as described. Red stain indicates the localization of p65 and blue stain indicates nucleus (magnification 200×). FIG. 8C: U266 cells (2×10^6 cells/ml) were treated with indicated concentrations of NEMO-control or NBD-peptide (100 μM) for the indicated time periods, and cell viability was monitored by the trypan blue dye exclusion method. Percent cell killing was determined as: (number of trypan blue stained cells/total cells)×100.
compound,measurement,setting,value
O=C(Nc1cc(Cl)cc2c1[nH]c1cnccc12)c1cccnc1 [PS-1145],inhibition of proliferation,[1],less than 50%
"CC[C@]1(O)C[C@H]2CN(CCc3c([nH]c4ccccc34)[C@@](C(=O)OC)(c3cc4c(cc3OC)N(C=O)[C@H]3[C@@](O)(C(=O)OC)[C@H](OC(C)=O)[C@]5(CC)C=CCN6CC[C@]43[C@@H]65)C2)C1 [vincristine, reference compound]",killing of U266 cells,[2],minimally effective
"NH2-DRQIKIWFQNRRMKWKKTALDWSWLQTE-CONH2 (H-DRQIKIWFQNRRMKWKKTALDWSWLQTE-NH2) [NBD peptide, reference compound]",nuclear pool of the p65 subunit of NF-κB,[3],decrease in the nuclear pool of the p65 subunit of NF-κB
same,suppression of cell growth,[4],Approximately 32%
